“And” between values parts separate entries of the source, which are not always exact repeats. Equal entries are not always repeated.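 Briefly, cells in 96-well plates were exposed to five compound concentrations for 48 h, and endpoints were estimated by linear interpolation. At the GI50, growth is halved. Definition used: TGI = concentration required for complete inhibition of growth.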
Experiments:
Experiment in all cases: NCI tumour cell line growth inhibition, 48 h
[1] = system: XF 498 CNS
[2] = system: KM20L2 colon
[3] = system: CCRF-CEM leukemia
[4] = system: COLO 205 colon
[5] = system: U251 CNS
[6] = system: UO-31 renal
[7] = system: NCI-H226 lung
[8] = system: EKVX NSCLC
[9] = system: M14 melanoma
[10] = system: SF-539 CNS
[11] = system: SW-620 colon
[12] = system: SK-OV-3 ovarian
[13] = system: OVCAR-8 ovarian
[14] = system: TK-10 renal
[15] = system: HOP-62 NSCLC
[16] = system: A498 renal
[17] = system: M19-MEL melanoma
[18] = system: SF-295 CNS
[19] = system: RPMI-8226 leukemia
[20] = system: HOP-18 NSCLC
[21] = system: CAKI-1 renal
[22] = system: SNB-19 CNS
[23] = system: MALME-3M melanoma
[24] = system: RXF 393 renal
[25] = system: HT29 colon
[26] = system: IGROV1 ovarian
[27] = system: SK-MEL-28 melanoma
[28] = system: OVCAR-4 ovarian
[29] = system: DMS 273 small cell lung
[30] = system: SNB-75 CNS
[31] = system: A549 NSCLC
[32] = system: OVCAR-5 ovarian
[33] = system: NCI-H23 lung
[34] = system: SF-268 CNS
[35] = system: DLD-1 colon
[36] = system: ACHN renal
[37] = system: HCT-116 colon
[38] = system: K-562 leukemia
[39] = system: NCI-H522 lung
[40] = system: HOP-92 NSCLC
[41] = system: UACC-257 melanoma
[42] = system: NCI-H460 lung
[43] = system: UACC-62 melanoma
[44] = system: KM12 colon
[45] = system: HCT-15 colon
[46] = system: 786-0 renal
[47] = system: DMS 114 small cell lung
[48] = system: SN12C renal
[49] = system: HL-60(TB) leukemia
[50] = system: OVCAR-3 ovarian
[51] = system: SK-MEL-5 melanoma
[52] = system: HCC-2998 colon
[53] = system: LXFL 529 NSCLC
[54] = system: LOX IMVI melanoma
[55] = system: SK-MEL-2 melanoma
[56] = system: SNB-78 CNS
[57] = system: T-47D breast
[58] = system: MCF7 breast
[59] = system: PC-3 prostate
[60] = system: NCI/ADR-RES ovarian
[61] = system: DU-145 prostate
[62] = system: MDA-N
[63] = system: MOLT-4 leukemia
[64] = system: MDA-MB-231 breast
[65] = system: HS 578T breast
[66] = system: MDA-MB-435
[67] = system: BT-549 breast
[68] = system: SR leukemia

With `C/C(=N/Nc1ccc([N+](=O)[O-])cc1[N+](=O)[O-])C(CC(C(=O)Nc1ccccc1C)/C(C)=N\Nc1ccc([N+](=O)[O-])cc1[N+](=O)[O-])C(=O)Nc1ccccc1C` (stereo unspecified) the TGI [1] was 33.8 µM, the TGI [2] was > 88.3 µM and the TGI [3] was > 100 µM. It also gave a TGI [4] of 25.4 µM, a TGI [5] of 14 µM and a TGI [6] of 39.9 µM. The TGI [7] was 19.3 µM, the TGI [8] was 38 µM and the TGI [9] was 46 µM. The TGI [10] was 25.8 µM, the TGI [11] was 42.3 µM and the TGI [12] was > 61.2 µM. It also gave a TGI [13] of 14 µM, a TGI [14] of 60.1 µM and a TGI [15] of 30.6 µM. For the same compound, the TGI [16] was 34 µM, the TGI [17] was 28.1 µM and the TGI [18] was 33.9 µM. The TGI [19] was > 69.3 µM, the TGI [20] was 28.9 µM and the TGI [21] was 30 µM. For the same compound, the TGI [22] was 32 µM, the TGI [23] was > 63.1 µM and the TGI [24] was 24.3 µM. For the same compound, the TGI [25] was 28 µM, the TGI [26] was 32.1 µM and the TGI [27] was 51.1 µM. It also gave a TGI [28] of 15.9 µM, a TGI [29] of 41.7 µM and a TGI [30] of 29.4 µM. For the same compound, the TGI [31] was 64.6 µM, the TGI [32] was 31 µM and the TGI [33] was 25.5 µM. The TGI [34] was 23.7 µM, the TGI [35] was > 100 µM and the TGI [36] was > 49.6 µM. For the same compound, the TGI [37] was 26.4 µM, the TGI [38] was > 100 µM and the TGI [39] was 41.8 µM. It also gave a TGI [40] of 15.5 µM, a TGI [41] of 43.9 µM and a TGI [42] of 36.4 µM. For the same compound, the TGI [43] was 69.4 µM, the TGI [44] was 38.5 µM and the TGI [45] was > 63.5 µM. The TGI [46] was 41.3 µM, the TGI [47] was 17.7 µM and the TGI [48] was 12.7 µM. The TGI [49] was > 100 µM, the TGI [50] was 22.4 µM and the TGI [51] was 36.8 µM. The TGI [52] was 60.8 µM, the TGI [53] was 27.9 µM and the TGI [54] was 36 µM. The TGI [55] was 28.2 µM and the TGI [56] was 52.2 µM.
With `CCCOc1c2cc(COC3OC(CO)C(O)C(O)C3O)cc1Cc1cc(COC3OC(CO)C(O)C(O)C3O)cc(c1OCCC)Cc1cc(COC3OC(CO)C(O)C(O)C3O)cc(c1OCCC)Cc1cc(COC3OC(CO)C(O)C(O)C3O)cc(c1OCCC)C2` (stereo unspecified) the GI50 [3] was 7.52 µM and 17.6 µM, the TGI [3] was > 100 µM and 36.5 µM and the GI50 [4] was 38.9 µM and 35.9 µM and 13.1 µM. The TGI [4] was > 100 µM and 26.1 µM, the GI50 [57] was 34.3 µM and 69.9 µM and 29 µM and the TGI [57] was > 100 µM. For the same compound, the GI50 [5] was 49.3 µM and 48.5 µM and 16.6 µM, the TGI [5] was > 100 µM and 31.6 µM and the GI50 [6] was > 100 µM and 28.8 µM. For the same compound, the TGI [6] was > 100 µM, the GI50 [7] was 59.2 µM and > 100 µM and 17.7 µM and the TGI [7] was > 100 µM and 40.1 µM. The GI50 [8] was > 100 µM and 35.5 µM, the TGI [8] was > 100 µM and the GI50 [9] was 61.1 µM and 56.1 µM and 16.2 µM. For the same compound, the TGI [9] was > 100 µM and 32.4 µM, the GI50 [10] was > 100 µM and 25 µM and the TGI [10] was > 100 µM and 79.8 µM. The GI50 [11] was 99.9 µM and > 100 µM and 15.6 µM, the TGI [11] was > 100 µM and 36.2 µM and the GI50 [12] was > 100 µM and 34.9 µM. For the same compound, the TGI [12] was > 100 µM, the GI50 [13] was > 100 µM and 18.4 µM and the TGI [13] was > 100 µM and 42.6 µM. The GI50 [14] was > 100 µM and 46.8 µM, the TGI [14] was > 100 µM and the GI50 [58] was 53.7 µM and > 100 µM and 19.4 µM. For the same compound, the TGI [58] was > 100 µM and 44.3 µM, the GI50 [15] was > 100 µM and 29.2 µM and the TGI [15] was > 100 µM and 93.7 µM. For the same compound, the GI50 [16] was 88.4 µM and > 100 µM and 16.3 µM, the TGI [16] was > 100 µM and 42.5 µM and the GI50 [18] was 67.5 µM and 84.6 µM and 17.4 µM. For the same compound, the TGI [18] was > 100 µM and 35.7 µM, the GI50 [59] was > 100 µM and 17.2 µM and the TGI [59] was > 100 µM and 46.2 µM. The TGI [60] was > 100 µM, the TGI [19] was > 100 µM and the GI50 [61] was > 100 µM and 35.1 µM. For the same compound, the TGI [61] was > 100 µM, the GI50 [21] was > 100 µM and 25 µM and the TGI [21] was > 100 µM and 64.8 µM. The GI50 [22] was 66.1 µM and > 100 µM and 17.5 µM, the TGI [22] was > 100 µM and 32.1 µM and the TGI [23] was > 100 µM. For the same compound, the GI50 [62] was > 100 µM and 18.4 µM, the TGI [62] was > 100 µM and 34.8 µM and the GI50 [24] was 14.2 µM and 23.9 µM. The TGI [24] was 33.9 µM and 87 µM and 77.4 µM, the TGI [63] was 29 µM and the GI50 [25] was > 100 µM and 89.8 µM and 32.6 µM. The TGI [25] was > 100 µM, the GI50 [26] was 60.2 µM and > 100 µM and 15.9 µM and the TGI [26] was > 100 µM and 40.8 µM. The GI50 [27] was > 100 µM and 14.5 µM, the TGI [27] was > 100 µM and 29 µM and the GI50 [64] was 45.2 µM and > 100 µM and 17 µM. For the same compound, the TGI [64] was > 100 µM and 34.1 µM, the TGI [28] was > 100 µM and 76.6 µM and the TGI [65] was > 100 µM. The GI50 [30] was 18.5 µM and 55.4 µM and 22.2 µM, the TGI [30] was 93.7 µM and > 100 µM and 62.8 µM and the GI50 [31] was 49.5 µM and > 100 µM and 26.9 µM. The TGI [31] was > 100 µM and 94.4 µM, the GI50 [32] was 41.8 µM and > 100 µM and 22 µM and the TGI [32] was > 100 µM and 55.2 µM. The GI50 [33] was 69.6 µM and 71 µM and 21.2 µM, the TGI [33] was > 100 µM and 52.8 µM and the GI50 [34] was > 100 µM and 80.4 µM and 17.5 µM. For the same compound, the TGI [34] was > 100 µM and 33.3 µM, the GI50 [36] was > 100 µM and 23.9 µM and the TGI [36] was > 100 µM and 63.4 µM. The GI50 [37] was 48.6 µM and > 100 µM and 16.7 µM, the TGI [37] was > 100 µM and 32.2 µM and the GI50 [38] was 36.7 µM and 62.2 µM and 15.8 µM. The TGI [38] was > 100 µM and 32.5 µM, the GI50 [39] was 32.4 µM and 72.8 µM and 13.7 µM and the TGI [39] was > 100 µM and 26.6 µM. The TGI [40] was > 100 µM, the GI50 [66] was 57.2 µM and > 100 µM and 20.6 µM and the TGI [66] was > 100 µM and 41.1 µM. For the same compound, the GI50 [41] was 67.1 µM and > 100 µM and 33.6 µM, the TGI [41] was > 100 µM and the GI50 [42] was 56.9 µM and > 100 µM and 30.3 µM. For the same compound, the TGI [42] was > 100 µM and 92.3 µM, the GI50 [43] was 90.7 µM and > 100 µM and 16 µM and the TGI [43] was > 100 µM and 35 µM. For the same compound, the GI50 [44] was 75.4 µM and > 100 µM and 19.3 µM, the TGI [44] was > 100 µM and 39.2 µM and the GI50 [45] was > 100 µM and 42.1 µM. For the same compound, the TGI [45] was > 100 µM, the GI50 [46] was > 100 µM and 28.1 µM and the TGI [46] was > 100 µM and 89.8 µM. The GI50 [48] was 96.6 µM and > 100 µM and 18.5 µM, the TGI [48] was > 100 µM and 43.5 µM and the GI50 [49] was 27.8 µM and 78 µM and 7.86 µM. For the same compound, the TGI [49] was 77.7 µM and > 100 µM and 21.6 µM, the GI50 [50] was 53.2 µM and > 100 µM and 19.3 µM and the TGI [50] was > 100 µM and 51.7 µM. For the same compound, the GI50 [51] was 96.7 µM and > 100 µM and 17.1 µM, the TGI [51] was > 100 µM and 32.7 µM and the TGI [52] was > 100 µM. The GI50 [54] was > 100 µM and 58.6 µM and 17.6 µM, the TGI [54] was > 100 µM and 31.4 µM and the GI50 [55] was 57 µM and 96.4 µM and 15.7 µM. For the same compound, the TGI [55] was > 100 µM and 35.6 µM, the GI50 [67] was > 100 µM and 72.8 µM and 21.8 µM and the TGI [67] was > 100 µM and 36.4 µM. For the same compound, the GI50 [68] was 29.9 µM and 13.8 µM and the TGI [68] was 48.9 µM and 29.5 µM.

Reference: PubChem BioAssay (NCI)
